{"source": "patent US20160243254A1", "about": "“Theranostic Nanoprobes for Overcoming Cancer Multidrug Resistance and Methods” (Massachusetts Institute of Technology, priority 2015, published 2016)", "key": {"[1]": {"test_system": "resistant MDA-MB-231 cells", "assay": "MTT cell viability assay", "assay_type": "cell-based", "conditions": "5-FU resistant MDA-MB-231 cells compared to parental cells", "procedure": "Briefly, a standard MTT [3-(4,5-dimethylthiazol-2-yl)-2,5-diphenyltetrazoliumbromide] reduction assay was performed to determine the resistance status of the cells and the cytotoxicity of the gold nanobeacons.\nCells were seeded at a density of 1×10^5 cells per well in 24-well culture plates in complete DMEM (500 μL) with serum. After 24 hours of exposure, the medium was removed and the cells were washed twice with sterile PBS and 300 μL of fresh medium with serum was added. Then 16.7 μL of sterile MTT stock solution (5 mg/mL in PBS) was added to each well.\nAfter incubation for an additional 2 hours, the medium was removed and the formazan crystals were resuspended in 300 μL of dimethyl sulfoxide (Sigma-Aldrich, USA). The solution was mixed and its absorbance was measured at 540 nm as a working wavelength and 630 nm as reference using a microplate reader (Varioskan Flash Multimode Reader, Thermo Scientific, MA, USA). The cell viability was normalized to that of cells cultured in the culture medium with PBS treatment.\nIn order to corroborate confocal and flow cytometry data and overcome 5-FU resistance, resistant MDA-MB-231 cells were incubated with increasing amounts of dark-gold nanobeacons with and without 5-FU, and evaluated by the imaging system IVIS®."}, "[2]": {"test_system": "resistant MDA-MB-231 mammary fat pad tumors", "assay": "Tumor growth in orthotopic triple-negative breast cancer mice model after hydrogel implantation", "assay_type": "in vivo, SCID mice", "conditions": "day 14 post treatment", "source_text": "In order to evaluate the efficiency of the dark-gold nanobeacon probes in sensing and in overcoming MDR in vivo, an orthotopic breast cancer mice model was developed by injecting resistant MDA-MD-231 cells to the mammary fat pad of female SCID hairless congenic mice. Efficacious and local delivery of the dark-gold nanobeacon probes was achieved by the implantation of a hydrogel disk on top of the triple-negative breast tumors. The hydrogel scaffold comprising polyamidoamine (PAMAM G5) dendrimer cross-linked with dextran aldehyde provided enhanced stability of the embedded nanoparticles.\nTumors in the mammary fat pad were induced in female SCID hairless congenic mice by injection of 5×10^6 resistant MDA-MB-231 cells stably expressing firefly luciferase, suspended in 50 μL of HBBS (Lonza, GA, USA) solution. For determination of tumor growth, individual tumors were measured using caliper, and tumor volume was calculated by Tumor volume (mm^3)=width×(length^2)/2. Treatments began when tumor volume reached about 100 mm^3. […]\nIn vivo imaging was used to track simultaneously tumor inhibition as measured by luciferase expression, nanobeacon probes before and after hybridization to the target and hydrogel stability monitored by fluorescence emission over a period of 14 days following hydrogel implantation."}}, "data": [{"smiles": "O=c1[nH]cc(F)c(=O)[nH]1", "note": "[5-FU, 5-fluorouracil]", "values": [{"measurement": "cell death after continuous exposure to drug", "setting": "[1]", "value": "absence of cell death"}, {"measurement": "effect on tumor (in words)", "setting": "[2]", "value": "no effect"}]}]}
